Earlier results in US11351146B2, “Topical compositions for the treatment of cutaneous leishmaniasis” (AC BIOSCIENCE SA, priority 2017, dated 2022).

Legend:
intracellular amastigote = conditions: versus glucantime
[1] = system: L. mexicana, L. infantum and L. major promastigotes

CCOC(=O)c1cccc(NC(=O)CCl)c1 [MF 29, 3-(2-chloroacetamido) ethyl benzoate]
fold more active than glucantime (intracellular amastigote): 400 fold
effect on promastigotes strains ([1]; L. mexicana, L. infantum and L. major promastigotes): high effect
fold more active than glucantime ([1]; promastigote, versus glucantime): 400 fold
